Measured values published in patent US7423008B2, “Derivatives of mithramycin and methods of making and uses thereof” (University of Kentucky Research Foundation, priority 2004, dated 2008).
pIC50: −log10 of the molar value.

Assays:
Breast (MCF-7) = assay: Proliferation inhibition assay (sulforhodamin B uptake), breast cells; assay type: cell-based; conditions: concentration 1 × 10^−5 molar
Method: (§1) The experiment was performed by Biotecon, Berlin. It measures the uptake of sulforhodamin B (SRB), which is dependent on the cellular protein quantities, and can be performed in 96-well microtiter plates according to the protocol published by Boyd et al. (NCI). The SRB assay is a rapid and sensitive method to measure drug-induced cytotoxicity. Briefly, cells will be incubated with and without drug for 72 hours (drugs will be added after 24 hours), fixed with TCA (trichloroacetic acid), and stained for 30 minutes using a 0.4% (w/v) SRB solution in […]. Cultures will then be rinsed with 1% acetic acid, residual wash solution will be removed and air-dried. Bound dye will be solubilized with 10 mM unbuffered Tris base (pH 10.5) for 5 min., and the optical density (OD) will be measured with amicrotiter plate reader at 564 nm. (Skehan, P. et al., “New calorimetric cytotoxicity assay for anticancer-drug screening,” Journal of the National Cancer Institute, 1990. 82(13): p. 1107-1112).

CNS (SF-268) = assay: Proliferation inhibition assay (sulforhodamin B uptake), CNS cells; assay type: cell-based
Method: as §1

Lung (NCI-H460) = assay: Proliferation inhibition assay (sulforhodamin B uptake), lung cells; assay type: cell-based
Method: as §1

Colon cancer cell lines = assay: Sulforhodamine B assay, 60 cell line panel: colon; assay type: cell-based, human; conditions: for GI50: Homo sapiens, 60 cell, 7 cell lines, read-out: Average Log(GI50) (converted); for AIF (activity improvement factor, 10^Δ1−x): versus 1
Method: (§2) The cytotoxicity of Mithramycin-SK and demycarosyl-mithramycin-SK were assessed in a panel of 60 cell lines using a sulforhodamine B assay. It is active against a variety of tumor cell lines in the concentration range of 10^−5 to 10^−8 molar. Cell lines were inoculated into a series of 96-well microliter plates with varying seeding densities depending on the growth characteristics of the particular cell lines. Following a 24 hour drug-free incubation, mithramycin-SK was added routinely at five 10-fold dilutions with maximum concentration of […]. After 48 hours of drug exposure, the change in protein stain optical density allowed the inhibition of cell growth to be analyzed.

Leukemia cell lines = assay: Sulforhodamine B assay, 60 cell line panel: leukemia; assay type: cell-based, human; conditions: for GI50: Homo sapiens, 60 cell, 5 cell lines, read-out: Average Log(GI50) (converted); for AIF (activity improvement factor, 10^Δ1−x): versus 1
Method: as §2

[1] = test system: Prostrate cancer cell lines; assay: Sulforhodamine B assay, 60 cell line panel: prostate; assay type: cell-based, human; conditions: for GI50: Homo sapiens, 60 cell, 2 cell lines, read-out: Average Log(GI50) (converted); for AIF (activity improvement factor, 10^Δ1−x): versus 1
Method: as §2

Renal cancer cell lines = assay: Sulforhodamine B assay, 60 cell line panel: renal; assay type: cell-based, human; conditions: for GI50: Homo sapiens, 60 cell, 8 cell lines, read-out: Average Log(GI50) (converted); for AIF (activity improvement factor, 10^Δ1−x): versus 1
Method: as §2

Breast cancer cell lines = assay: Sulforhodamine B assay, 60 cell line panel: breast; assay type: cell-based, human; conditions: for GI50: Homo sapiens, 60 cell, 8 cell lines, read-out: Average Log(GI50) (converted); for AIF (activity improvement factor, 10^Δ1−x): versus 1
Method: as §2

CNS cancer cells = assay: Sulforhodamine B assay, 60 cell line panel: CNS; assay type: cell-based, human; conditions: for GI50: Homo sapiens, 60 cell, 5 cell lines, read-out: Average Log(GI50) (converted); for AIF (activity improvement factor, 10^Δ1−x): versus 1
Method: as §2

NSCLC cell lines = assay: Sulforhodamine B assay, 60 cell line panel: NSCLC; assay type: cell-based, human; conditions: for GI50: Homo sapiens, 60 cell, 8 cell lines, read-out: Average Log(GI50) (converted); for AIF (activity improvement factor, 10^Δ1−x): versus 1
Method: as §2

Melanoma cell lines = assay: Sulforhodamine B assay, 60 cell line panel: melanoma; assay type: cell-based, human; conditions: for GI50: Homo sapiens, 60 cell, 8 cell lines, read-out: Average Log(GI50) (converted); for AIF (activity improvement factor, 10^Δ1−x): versus 1
Method: as §2

[2] = test system: Ovarian cancer cell lines; assay: Sulforhodamine B assay, 60 cell line panel: ovarian; assay type: cell-based, human; conditions: for GI50: Homo sapiens, 60 cell, 6 cell lines, read-out: Average Log(GI50) (converted); for AIF (activity improvement factor, 10^Δ1−x): versus 1
Method: as §2

Squamous carcinoma = assay: Neutral red assay, squamous carcinoma; assay type: cell-based; conditions: for GI50: read-out: Average Log(GI50) (converted)
Text: (§3) Mithramycin-SK was particularly active against melanoma, leukemia, and CNS cancer cells (log(GI50) values of −7.64, −7.59, and −7.61, respectively).

Breast carcinoma = assay: Neutral red assay, breast carcinoma; assay type: cell-based; conditions: for GI50: read-out: Average Log(GI50) (converted)
Text: as §3

[3] = test system: non-tumorous mouse fibroblast cells (NIH 3T3); assay: Neutral red toxicity assay on non-tumorous fibroblasts; assay type: cell-based; conditions: for pIC50: NIH3T3, neutral red
Method: Mithramycin-SK and demycarosyl-mithramycin-SK were also tested in a neutral red toxicity assay. In this experiment, non-tumorous mouse fibroblast cells were used (NIH 3T3).
as §3

Lung carcinoma = assay: Neutral red assay, lung carcinoma; assay type: cell-based; conditions: for GI50: read-out: Average Log(GI50) (converted)
Text: as §3

[4] = test system: squamous, melanoma, lung, and breast carcinomas; assay: Neutral red uptake analysis of carcinomas, overall; assay type: cell-based; conditions: cells not given
Text: as §3

Melanoma = assay: Neutral red assay, melanoma; assay type: cell-based; conditions: for GI50: read-out: Average Log(GI50) (converted)
Text: as §3

[5] = test system: 60 human cancer cell lines; assay: Sulforhodamine B cytotoxicity assay, whole panel of 60 cell lines (NCI); assay type: cell-based
Method: The mithramycin SK has antitumor activity substantially higher than that of MTM and is particularly active against melanoma, leukemia and CNS cancer cells.
as §2

[6] = mouse 3T3 fibroblast (nontumor) cells
[7] = concentration 1 × 10^−4.6 molar

SMILES	Percent Growth in 48 Hours, Breast (MCF-7) (Breast (MCF-7)) [%]	Percent Growth in 48 Hours, CNS (SF-268) (CNS (SF-268); concentration 1 × 10^−5 molar) [%]	Percent Growth in 48 Hours, Lung (NCI-H460) (Lung (NCI-H460); concentration 1 × 10^−5 molar) [%]	GI50 (Colon cancer cell lines) [nM]	AIF (activity improvement factor, 10^Δ1−x) (Colon cancer cell lines)	GI50 (Leukemia cell lines) [nM]	AIF (activity improvement factor, 10^Δ1−x) (Leukemia cell lines)	GI50 [1] [nM]	AIF (activity improvement factor, 10^Δ1−x) [1]	GI50 (Renal cancer cell lines) [nM]	AIF (activity improvement factor, 10^Δ1−x) (Renal cancer cell lines)	GI50 (Breast cancer cell lines) [nM]	AIF (activity improvement factor, 10^Δ1−x) (Breast cancer cell lines)	GI50 (CNS cancer cells) [nM]	AIF (activity improvement factor, 10^Δ1−x) (CNS cancer cells)	GI50 (NSCLC cell lines) [nM]	AIF (activity improvement factor, 10^Δ1−x) (NSCLC cell lines)	GI50 (Melanoma cell lines) [nM]	AIF (activity improvement factor, 10^Δ1−x) (Melanoma cell lines)	GI50 [2] [nM]	also measured
CO[C@@H]1C(=O)C(C(C)=O)=C(O)[C@@]2(O[C@H]3C[C@@H](O[C@H]4C[C@@H](O[C@H]5C[C@](C)(O)[C@H](O)[C@@H](C)O5)[C@@H](O)[C@@H](C)O4)[C@H](O)[C@@H](C)O3)C(=O)c3c(cc4cc(O[C@H]5C[C@@H](O[C@H]6C[C@@H](O)[C@H](O)[C@@H](C)O6)[C@H](O)[C@@H](C)O5)c(C)c(O)c4c3O)C[C@@H]12 [Premithramycin B, reference compound]	>100	>100	>100																		
COC(C(O)C(C)=O)[C@@H]1Cc2cc3cc(OC4CC(OC5CC(O)C(O)C(C)O5)C(O)C(C)O4)c(C)c(O)c3c(O)c2C(=O)[C@H]1OC1CC(OC2CC(O)C(O)C(C)O2)C(O)C(C)O1 (stereo partly drawn) [Demycarosyl-Mithramycin-SK, Demycarosyl-mithramycin-SK]	22	47	5	4470	0.05	2820	0.08	5620	0.02	7240	0.03	7080	0.04	5010	0.03	5010	0.04	4270	0.04	5890	AIF (activity improvement factor, 10^Δ1−x) [2]: 0.04
COC(C(O)C(C)=O)[C@@H]1Cc2cc3cc(OC4CC(OC5CC(O)C(O)C(C)O5)C(O)C(C)O4)c(C)c(O)c3c(O)c2C(=O)[C@H]1OC1CC(OC2CC(OC3CC(C)(O)C(O)C(C)O3)C(O)C(C)O2)C(O)C(C)O1 (stereo partly drawn) [Mithramycin-SK, mithramycin-SK]	0.2	1	0.1	47.9	4.7	25.7	8.7	33.1	3.8	51.3	3.6	1290	0.2	24.5	6.8	42.7	4.4	22.9	8.3	29.5	GI50 (Squamous carcinoma): 1020 nM; AIF (activity improvement factor, 10^Δ1−x) (Squamous carcinoma; versus 1): 8.9; GI50 (Breast carcinoma): 182 nM; AIF (activity improvement factor, 10^Δ1−x) (Breast carcinoma; versus 1): 61.6; toxicity (concentration still without toxicity) ([3]; NIH 3T3, after 24 hours of incubation): > 200 µg/mL; pIC50 [3, 6]: 4.71; toxicity compared to parent compound MTM ([3]; in vitro toxicity assay): two orders of magnitude lesser toxicity; fold less toxic than MTM ([3]; mouse 3T3 fibroblast (nontumor) cells, ratio of IC50 values): more than 1500 fold; GI50 (Lung carcinoma): 132 nM; AIF (activity improvement factor, 10^Δ1−x) (Lung carcinoma; versus 1): 91.2; concentrations revealing antiproliferative activity [4]: < 1 µg/mL; GI50 (Melanoma): 562 nM; AIF (activity improvement factor, 10^Δ1−x) (Melanoma; versus 1): 15.8; activity, times higher than that of MTM ([5]; compilation of the average log(GI50) values): up to 9 times; antitumor activity compared to parent compound MTM ([5]; initial in vitro anticancer assays by the NCI, 60 human cancer cell lines): up to two orders of magnitude better antitumor activity; AIF (activity improvement factor, 10^Δ1−x) [2]: 8.5
CO[C@H](C(=O)[C@@H](O)[C@@H](C)O)[C@@H]1Cc2cc3cc(OC4CC(OC5CC(O)C(O)C(C)O5)C(O)C(C)O4)c(C)c(O)c3c(O)c2C(=O)[C@H]1OC1CC(OC2CC(OC3CC(C)(O)C(O)C(C)O3)C(O)C(C)O2)C(O)C(C)O1 (stereo partly drawn) [Mithramycin]	12		12	224		224		126		186		257		166		186		191		251	GI50 (Squamous carcinoma): 9120 nM; GI50 (Breast carcinoma): 11200 nM; pIC50 [3, 6]: 7.89 to 8.46; GI50 (Lung carcinoma): 12000 nM; GI50 (Melanoma): 8910 nM
CO[C@@H]1C(=O)C(C(C)=O)=C(O)[C@@]2(O[C@H]3C[C@@H](O)[C@H](O)[C@@H](C)O3)C(=O)c3c(cc4cc(O)cc(O)c4c3O)C[C@@H]12 [Premithramycin A1, reference compound]																					Percent Growth in 48 Hours, CNS (SF-268) (CNS (SF-268); [7]): 93%; Percent Growth in 48 Hours, Lung (NCI-H460) (Lung (NCI-H460); [7]): 68%
